Laboratory results from patent US20080292584A1 (priority 2005, published 2008).
Several values for one entry are separate records, joined by “and”; a condition that tells them apart may be missing. Identical values can stand only once.

How the values were obtained:
[1] = biological target: T1, CYP3A4 (Homo sapiens, UniProt P08684); assay: Metabolism of metaxalone by expressed recombinant human CYP3A4 (Example 1); details: 30 min;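 also: microsomes holding 10 pmol P450, reactions started by an NADPH regenerating system after 5 min preincubation, 0.5 mL final volume, background signal taken from matrix controls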
Target sequence in this assay (P08684 2-503 limits assumed): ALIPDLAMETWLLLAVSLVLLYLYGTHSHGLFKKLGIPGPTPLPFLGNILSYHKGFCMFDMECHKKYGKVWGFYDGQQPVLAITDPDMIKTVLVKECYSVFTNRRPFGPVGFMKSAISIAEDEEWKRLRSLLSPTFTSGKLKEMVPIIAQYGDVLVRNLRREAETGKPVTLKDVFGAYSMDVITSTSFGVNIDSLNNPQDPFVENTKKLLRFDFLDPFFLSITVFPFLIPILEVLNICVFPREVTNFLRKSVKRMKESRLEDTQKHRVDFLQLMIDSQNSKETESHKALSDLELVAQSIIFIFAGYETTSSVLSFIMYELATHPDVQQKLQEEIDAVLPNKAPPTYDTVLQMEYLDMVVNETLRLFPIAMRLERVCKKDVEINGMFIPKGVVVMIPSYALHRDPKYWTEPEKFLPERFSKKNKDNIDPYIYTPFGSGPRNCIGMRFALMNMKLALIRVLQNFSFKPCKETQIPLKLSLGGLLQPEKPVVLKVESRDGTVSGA
Procedure: (§1) Commercially available microsomes from baculovirus-infected insect cells containing singly-expressed recombinant wild-type (*1 allele) human CYP enzymes and cDNA-expressed human cytochrome p450 oxidoreductase [BD SUPERSOMES Enzymes; BD Biosciences Discovery Labware (Woburn, Mass.)] were used.
(§2) After a 5-minute pre-incubation, an NADPH regenerating system (NRS) was added to the incubation mixtures to initiate reactions, with a final incubation volume of 0.5 mL. Incubations were continued for 30 minutes, and then terminated, except for those for CYP2C19, which were incubated for 36 minutes prior to termination.
(§3) Matrix controls were performed to determine the background signal from the matrix components (microsomes (10 pmol p450), 01N Tris buffer, NRS, and 1% methanol). […] After a 5-minute pre-incubation, 2% sodium bicarbonate solution was added to the incubation mixtures. Incubation was for 30 minutes at a final volume of 0.5 mL. Matrix and metabolic negative controls were terminated by adding an equal volume of methanol. […] Analysis of samples was subsequent to storage at −70° C.

[2] = biological target: CYP2D6 (Homo sapiens, UniProt P10635); assay: Inhibition of CYP2D6 activity in pooled human liver microsomes (dextromethorphan 5 μM to dextrorphan); assay type: in vitro ADME
Chain of CYP2D6 (P10635 whole entry): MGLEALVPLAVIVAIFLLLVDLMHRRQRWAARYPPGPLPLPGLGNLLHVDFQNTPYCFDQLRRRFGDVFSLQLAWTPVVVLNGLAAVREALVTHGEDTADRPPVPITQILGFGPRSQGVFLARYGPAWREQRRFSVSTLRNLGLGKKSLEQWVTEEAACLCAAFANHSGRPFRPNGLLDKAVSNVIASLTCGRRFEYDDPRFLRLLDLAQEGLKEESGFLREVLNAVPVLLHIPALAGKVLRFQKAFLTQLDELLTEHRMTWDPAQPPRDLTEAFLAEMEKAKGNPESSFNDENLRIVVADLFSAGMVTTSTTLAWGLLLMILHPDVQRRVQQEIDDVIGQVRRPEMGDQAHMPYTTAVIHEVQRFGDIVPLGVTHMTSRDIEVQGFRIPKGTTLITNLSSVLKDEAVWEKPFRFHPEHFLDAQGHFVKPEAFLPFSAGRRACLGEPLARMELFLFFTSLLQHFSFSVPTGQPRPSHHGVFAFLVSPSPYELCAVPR
Procedure: All other incubations were for 30 minutes.
Four replicates were performed.
Two replicates were performed.

[3] = biological target: T2, CYP1A2 (Homo sapiens, UniProt P05177); assay: Inhibition of CYP1A2 activity in pooled human liver microsomes (phenacetin 50 μM to acetaminophen); assay type: in vitro ADME
T2 sequence (P05177 1-516): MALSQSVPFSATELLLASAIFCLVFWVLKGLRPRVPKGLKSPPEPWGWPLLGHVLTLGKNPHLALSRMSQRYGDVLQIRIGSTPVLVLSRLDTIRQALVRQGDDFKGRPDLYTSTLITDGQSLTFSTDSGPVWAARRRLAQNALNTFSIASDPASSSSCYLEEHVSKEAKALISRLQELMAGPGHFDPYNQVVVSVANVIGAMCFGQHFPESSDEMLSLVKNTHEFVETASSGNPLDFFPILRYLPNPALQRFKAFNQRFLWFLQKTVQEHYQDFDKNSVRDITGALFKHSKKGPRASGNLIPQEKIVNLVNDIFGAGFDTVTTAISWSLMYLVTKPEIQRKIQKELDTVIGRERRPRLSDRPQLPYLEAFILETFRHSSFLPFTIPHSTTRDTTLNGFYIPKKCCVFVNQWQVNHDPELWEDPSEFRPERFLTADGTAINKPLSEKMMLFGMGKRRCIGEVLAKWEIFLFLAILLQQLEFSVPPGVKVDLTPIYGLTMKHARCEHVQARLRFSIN
Procedure: Microsomes were prepared by differential centrifugation of liver homogenates pooled from at least ten human donors.
After a 5 minute preincubation, NADPH regenerating system (NRS) was added to initiate the reaction. CYP2A6 and CYP3A4 incubations were for 10 minutes. All other incubations were for 30 minutes.
Incubations for CYP2C8 were terminated by adding 1.0 mL of ACN, while all other incubations were terminated by adding 1.0 mL of methanol.
Vehicle control experiments were performed to establish a baseline value for enzyme activity. […] Four replicates were performed.
Two replicates were performed. […] No interference was detected in any of the metabolite assay methods used.

[4] = biological target: T3, CYP2A6 (Homo sapiens, UniProt P11509); assay: Metabolism of metaxalone by expressed recombinant human CYP2A6 (Example 1); details: 30 min;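 also: expressed P450 incubations started with NADPH regenerating system, 0.5 mL final volume, compared against metabolic negative controls, with background signal estimated from matrix controls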
T3 sequence (P11509 1-494): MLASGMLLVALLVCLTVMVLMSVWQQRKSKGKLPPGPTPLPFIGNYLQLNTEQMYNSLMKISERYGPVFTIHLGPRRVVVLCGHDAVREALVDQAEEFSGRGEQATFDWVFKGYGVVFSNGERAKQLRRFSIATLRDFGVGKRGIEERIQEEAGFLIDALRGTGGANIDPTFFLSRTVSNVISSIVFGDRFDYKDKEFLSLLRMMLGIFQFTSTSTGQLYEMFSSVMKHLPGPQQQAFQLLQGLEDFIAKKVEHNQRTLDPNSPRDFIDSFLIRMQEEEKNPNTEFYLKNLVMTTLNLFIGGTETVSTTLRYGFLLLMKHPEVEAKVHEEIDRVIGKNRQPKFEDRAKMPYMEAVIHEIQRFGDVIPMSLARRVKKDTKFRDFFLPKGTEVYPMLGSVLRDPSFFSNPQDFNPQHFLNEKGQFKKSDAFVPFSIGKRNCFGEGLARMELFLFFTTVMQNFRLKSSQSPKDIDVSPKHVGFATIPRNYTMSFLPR
Procedure: as §1, §2, §3

[5] = biological target: T1, CYP3A4; assay: Induction/inhibition of CYP3A4 activity in cryopreserved human hepatocytes (testosterone)
Description: Hepatocytes from three human donors were obtained from a cryopreserved hepatocyte bank (In Vitro Technologies, Inc., USA). After thawing, viable hepatocytes were transferred to collagen-coated 48-well plates for attachment in plating medium (DMEM stock (Dulbecco's modified Eagle's medium, supplemented with bovine serum albumin, fructose, N-(2-hydroxyethyl)piperazine-N′-(2-ethanesulfonate) (HEPES), and sodium bicarbonate), supplemented with antibiotics, bovine serum, hydrocortisone, insulin and minimum essential medium (MEM) nonessential amino acids). After attachment to the collagen matrix, plating medium was replaced with sandwich medium (plating medium supplemented with VITROGEN) and incubated until use.
The supplemented KHB was replaced with 150 μL supplemented KHB containing the appropriate isoform-selective substrate and incubated for 4 hrs prior to termination by adding 150 μL ice-cold methanol, except for the CYP2C8 incubations which were terminated by adding 150 μL acetonitrile.
All substrates were dissolved in acetonitrile.
Replicate trials and controls were performed. […] Additionally, reference control samples were included to evaluate inducibility of CYP2B6, CYP2C9, and CYP2C19 in the test system.
Mean specific activity values with associated p-values≦0.05 were deemed to be statistically significant.
Target sequence in this assay (P08684 whole entry): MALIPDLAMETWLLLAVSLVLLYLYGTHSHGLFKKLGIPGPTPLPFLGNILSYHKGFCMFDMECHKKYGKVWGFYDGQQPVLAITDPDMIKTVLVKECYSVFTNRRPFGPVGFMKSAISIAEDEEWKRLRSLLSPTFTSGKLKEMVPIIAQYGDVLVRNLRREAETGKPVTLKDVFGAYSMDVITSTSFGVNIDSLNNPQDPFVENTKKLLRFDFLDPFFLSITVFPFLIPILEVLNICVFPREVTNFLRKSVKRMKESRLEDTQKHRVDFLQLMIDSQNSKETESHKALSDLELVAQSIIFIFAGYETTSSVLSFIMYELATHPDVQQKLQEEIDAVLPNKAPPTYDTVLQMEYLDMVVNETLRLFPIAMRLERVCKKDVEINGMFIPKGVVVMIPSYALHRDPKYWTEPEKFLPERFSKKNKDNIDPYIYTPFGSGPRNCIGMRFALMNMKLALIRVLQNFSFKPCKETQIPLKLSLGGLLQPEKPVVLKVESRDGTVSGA

## Cc1cc(C)cc(OCC2CNC(=O)O2)c1 (stereo not drawn) [metaxalone, 5-[(3,5-dimethylphenoxy)methyl]-2-oxazolidinone]
[1]; metaxalone 0.5 μM
  Metaxalone Present Adjusted Individual: 0.320 µM and 0.323 µM and 0.317 µM
  Metaxalone Present Adjusted Mean ± SD: 0.320 ± 0.00333 µM
  Metaxalone Present Raw: 0.1598 µM and 0.1616 µM and 0.1583 µM
  Percent of Metabolic Negative Control Individual: 101% and 102% and 99.6%
  Percent of Metabolic Negative Control Mean ± SD: 101 ± 1.05%
[1]; metaxalone 2.5 μM
  Metaxalone Present Adjusted Individual: 1.71 µM and 1.66 µM and 1.67 µM
  Metaxalone Present Adjusted Mean ± SD: 1.68 ± 0.0289 µM
  Metaxalone Present Raw: 0.8573 µM and 0.8292 µM and 0.8374 µM
  Percent of Metabolic Negative Control Individual: 99.8% and 96.5% and 97.5%
  Percent of Metabolic Negative Control Mean ± SD: 98.0 ± 1.68%
[1]; metaxalone 25 μM
  Percent of Metabolic Negative Control Individual: 98.1% and 97.1% and 99.3%
  Percent of Metabolic Negative Control Mean ± SD: 98.1 ± 1.10%
[2]; 0.3-100 μM metaxalone, p≦0.05
  inhibition of CYP activity at a statistically significant level: inhibited
[2]; CYP isozyme 2D6, summary of studies
  Inhibitor: +
[2]; metaxalone 0.3 μM
  Percent of VC: 81.3%
  Specific Activity Individual: 39.5 pmol/min/mg protein and 39.2 pmol/min/mg protein and 40.5 pmol/min/mg protein
  Specific Activity Mean ± SD: 39.8 ± 0.688 pmol/min/mg protein
[2]; metaxalone 1 μM
  Percent of VC: 84.2%
  Specific Activity Individual: 42.4 pmol/min/mg protein and 41.3 pmol/min/mg protein
  Specific Activity Mean ± SD: 41.2 ± 1.28 pmol/min/mg protein
[2]; metaxalone 3 μM
  Percent of VC: 89.3%
  Specific Activity Individual: 43.0 pmol/min/mg protein and 44.8 pmol/min/mg protein
  Specific Activity Mean ± SD: 43.7 ± 0.940 pmol/min/mg protein
[2]; metaxalone 30 μM
  Percent of VC: 85.1%
  Specific Activity Individual: 41.4 pmol/min/mg protein and 42.6 pmol/min/mg protein and 40.9 pmol/min/mg protein
  Specific Activity Mean ± SD: 41.6 ± 0.893 pmol/min/mg protein
[2]; metaxalone 100 μM
  Percent of VC: 85.9%
  Specific Activity Individual: 42.6 pmol/min/mg protein and 41.3 pmol/min/mg protein and 42.2 pmol/min/mg protein
  Specific Activity Mean ± SD: 42.0 ± 0.680 pmol/min/mg protein
[3]; 0.3-100 μM metaxalone, p≦0.05
  inhibition of CYP activity at a statistically significant level: inhibited
[3]; CYP isozyme 1A2, summary of studies
  Inhibitor: +
[3]; metaxalone 0.3 μM
  Percent of VC: 97.2%
  Specific Activity Individual: 28.6 pmol/min/mg protein and 27.2 pmol/min/mg protein
  Specific Activity Mean ± SD: 28.0 ± 0.715 pmol/min/mg protein
[3]; metaxalone 1 μM
  Percent of VC: 92.3%
  Specific Activity Individual: 26.6 pmol/min/mg protein
  Specific Activity Mean ± SD: 26.6 ± 0.327 pmol/min/mg protein
[3]; metaxalone 3 μM
  Percent of VC: 90.3%
  Specific Activity Individual: 26.5 pmol/min/mg protein and 25.1 pmol/min/mg protein and 26.4 pmol/min/mg protein
  Specific Activity Mean ± SD: 26.0 ± 0.785 pmol/min/mg protein
[3]; metaxalone 30 μM
  Percent of VC: 89.8%
  Specific Activity Individual: 25.2 pmol/min/mg protein and 25.8 pmol/min/mg protein and 26.7 pmol/min/mg protein
  Specific Activity Mean ± SD: 25.9 ± 0.725 pmol/min/mg protein
[3]; metaxalone 100 μM
  Percent of VC: 82.0%
  Specific Activity Individual: 23.7 pmol/min/mg protein and 23.6 pmol/min/mg protein (2×)
  Specific Activity Mean ± SD: 23.6 ± 0.0275 pmol/min/mg protein
[4]; metaxalone 0.5 μM
  Metaxalone Present Adjusted Individual: 0.309 µM and 0.302 µM and 0.285 µM
  Metaxalone Present Adjusted Mean ± SD: 0.299 ± 0.0124 µM
  Metaxalone Present Raw: 0.1546 µM and 0.1511 µM and 0.1425 µM
  Percent of Metabolic Negative Control Individual: 99.5% and 97.2% and 91.7%
  Percent of Metabolic Negative Control Mean ± SD: 96.1 ± 3.99%
[4]; metaxalone 2.5 μM
  Metaxalone Present Adjusted Individual: 1.58 µM and 1.60 µM and 1.65 µM
  Metaxalone Present Adjusted Mean ± SD: 1.61 ± 0.0373 µM
  Metaxalone Present Raw: 0.7913 µM and 0.7979 µM and 0.8264 µM
  Percent of Metabolic Negative Control Individual: 104% and 105% and 109%
  Percent of Metabolic Negative Control Mean ± SD: 106 ± 2.46%
[4]; metaxalone 25 μM
  Metaxalone Present Adjusted Individual: 15.5 μM and 15.7 μM (2×)
  Metaxalone Present Adjusted Mean ± SD: 15.6 ± 0.0975 µM
  Metaxalone Present Raw: 7.764 µM and 7.85 µM and 7.846 µM
  Percent of Metabolic Negative Control Individual: 101% and 102% (2×)
  Percent of Metabolic Negative Control Mean ± SD: 102 ± 0.636%
[5]
  Inducer/Inhibitor: +
[5]; Donor 2, Metaxalone 0.4 μM
  Specific Activity Mean ± SD: 1.20 ± 0.109 pmol/min/million cells
[5]; human
  6β-Hydroxytestosterone formation Adjusted Mean ± SD: 0.116 ± 0.00524 µM
  Specific Activity Mean ± SD: <0.905 ± 0.0213 pmol/min/million cells
[5]; human, 4 h, 4 μM
  6β-Hydroxytestosterone formation Adjusted Mean ± SD: <0.100 ± 0.000 µM
[5]; human, 48 h, 0.4 μM
  Specific Activity Mean ± SD: <0.893 ± 0.000 pmol/min/million cells
[5]; human, hepatocytes, 48 h
  effect on CYP3A4 activity: did not induce CYP3A4 activity
[5]; human, hepatocytes, 48 h, 40 μM
  induced CYP3A4 activity: about 21%
